In patent US20260055117A1, “SUBSTITUTED PYRIDONE GPR84 ANTAGONISTS AND USES THEREOF” (Liminal BioSciences Limited, priority 2022, published 2026):

What was measured:
[1] = test system: dextran sodium sulfate-induced chronic inflammatory bowel disease; details: mouse; once-daily doses of 3 and 10 mg/kg; cited from earlier work
human GPR84 receptor = biological target: T1, human GPR84 receptor (Homo sapiens, UniProt Q9NQS5); assay: Gαi biosensor BRET assay (GPR84 antagonism vs agonist ZQ-16); type: cell-based; details: HEK293 cells, 200 nmol/L agonist ZQ-16; for inhibition at 10 µM: tested at 10 μM (concentration code D); for IC50: Gαi biosensor BRET assay; for inhibition at 2 µM: tested at 2 μM (concentration code A)
T1 construct: host or cells: HEK293, transiently transfected
Summary of the method: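 HEK293 cells transiently expressing GPR84, Gαi2-Rluc8, GFP10-Gγ2 and Gβ1 were pre-incubated with compounds 5 min at 37 °C in Tyrode's buffer pH 7.5, then stimulated with 200 nmol/L ZQ-16 for 5 min at room temperature. BRET2 (acceptor/donor ratio) read after 5 μmol/L coelenterazine 400A, background- and vehicle-corrected.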

T1 sequence (Q9NQS5 whole entry): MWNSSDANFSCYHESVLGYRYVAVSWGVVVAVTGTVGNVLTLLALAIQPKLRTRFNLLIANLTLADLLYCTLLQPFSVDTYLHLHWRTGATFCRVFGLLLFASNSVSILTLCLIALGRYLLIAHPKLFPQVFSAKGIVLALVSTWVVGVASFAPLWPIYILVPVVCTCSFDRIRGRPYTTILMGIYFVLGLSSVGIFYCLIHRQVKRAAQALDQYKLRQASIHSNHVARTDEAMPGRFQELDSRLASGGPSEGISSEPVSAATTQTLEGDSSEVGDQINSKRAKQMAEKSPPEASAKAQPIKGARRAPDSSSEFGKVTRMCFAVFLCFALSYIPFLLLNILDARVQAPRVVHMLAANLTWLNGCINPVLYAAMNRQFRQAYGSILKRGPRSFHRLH

Structure (SMILES) | inhibition at 10 µM (human GPR84 receptor) [%] | IC50 (human GPR84 receptor) [nM] | inhibition at 2 µM (human GPR84 receptor) [%] | further results
O=c1nc(OC[C@@H]2COCCO2)cc2n1CCc1cc(C#CC3CC3)ccc1-2 [GLPG1205] | – | – | – | disease activity index score [1]: reduced; neutrophil infiltration [1]: reduced
Cc1cc(OCC(=O)N(C)C)c(O)c(=O)n1[C@H](C)c1ccc(C#CC2CC2)cc1 [Compound I-286] | 50 to 75 | – | – | –
Cc1cc(OCc2ncccn2)cc(=O)n1[C@H](C)c1ccc(OC(C)C)cc1 [Compound I-129] | < 25 | – | – | –
Cc1cc(OCC(=O)NC2COC2)cc(=O)n1[C@H](C)c1ccc(C#CC2CC2)cc1 [Compound I-52] | 50 to 75 | – | – | –
Cc1cc(OCc2ncn[nH]2)cc(=O)n1[C@H](C)c1ccc(C#CC2CC2)cc1 [Compound I-328] | > 75 | – | – | –
Cc1cc(OCc2ncc(NS(=O)(=O)C(F)(F)F)cn2)cc(=O)n1[C@H](C)c1ccc(C#CC2CC2)cc1 [Compound I-76] | – | ≤ 300 | > 75 | –
Cc1cc(OCC(=O)N2CC(F)(F)C2)cc(=O)n1[C@H](C)c1ccc(C#CC2CC2)c(F)c1 [Compound I-24] | > 75 | 300 to 1000 | – | –
Cc1cc(OCC(=O)N2C[C@H](O)[C@@H](O)C2)cc(=O)n1[C@H](C)c1ccc(C#CC2CC2)cc1 [Compound I-314] | – | ≤ 300 | > 75 | –
Cc1cc(OCC(=O)N(C)CC(=O)O)cc(=O)n1[C@H](C)c1ccc(C#CC2CC2)cc1 [Compound I-350] | – | – | > 75 | –
Cc1cc(OCC(=O)N(C)C)cc(=O)n1C(C)c1ccccn1 (centres unmarked) [Compound I-225] | < 25 | – | – | –
Cc1cc(OCCN2CCCC2)cc(=O)n1[C@H](C)c1ccc(C#CC2CC2)cc1 [Compound I-281] | 25 to 50 | – | – | –
Cc1cc(OCC(=O)C2CCCC2)cc(=O)n1[C@H](C)c1ccc(C#CC2CC2)cc1 [Compound I-273] | > 75 | – | – | –
Cc1cc(/C=C2\SC(=O)NC2=O)cc(=O)n1[C@H](C)c1ccc(C#CC2CC2)cc1 [Compound I-339] | > 75 | – | – | –
CC(=O)C(C)(C)Oc1cc(C)n([C@H](C)c2ccc(C#CC3CC3)cc2)c(=O)c1 [Compound I-271] | 25 to 50 | – | – | –
Cc1cc(OCC(=O)NC2CCOCC2)cc(=O)n1[C@H](C)c1ccc(C#CC2CC2)cc1 [Compound I-66] | 50 to 75 | 300 to 1000 | – | –
Cc1nc(OCC(=O)N2CC[C@H](C(=O)O)C2)cc(=O)n1[C@H](C)c1ccc(C#CC2CC2)cc1 [Compound I-299] | – | 1000 to 3000 | > 75 | –
Cc1cc(OCC(=O)N2CCC3(CC2)CN(C)C3)cc(=O)n1[C@H](C)c1ccc(C#CC2CC2)cc1 [Compound I-203] | 50 to 75 | – | – | –
Cc1cc(OCC(=O)N2CCN(C)CC2)cc(=O)n1[C@H](C)c1ccc(C#CC2CC2)cc1 [Compound I-60] | > 75 | ≤ 300 | – | –
Cc1cc(OCC(=O)N2CC[C@H](C(=O)O)C2)cc(=O)n1[C@H](C)c1ccc(C#CC2CC2)cc1 [Compound I-251] | – | ≤ 300 | > 75 | –

Structure (SMILES) | inhibition at 10 µM (human GPR84 receptor) [%] | IC50 (human GPR84 receptor) [nM] | inhibition at 2 µM (human GPR84 receptor) [%] | further results
[2H]C([2H])([2H])N(C(=O)COc1cc(C)n([C@H](C)c2ccc(C#CC3CC3)cc2)c(=O)c1)C([2H])([2H])[2H] [Compound I-6] | – | ≤ 300 | > 75 | –
Cc1cc(OCC(=O)N(C)C2CCN(C)CC2)cc(=O)n1[C@H](C)c1ccc(C#CC2CC2)cc1 [Compound I-44] | – | – | > 75 | –
CNS(=O)(=O)COc1cc(C)n([C@H](C)c2ccc(C#CC3CC3)c(F)c2)c(=O)c1 [Compound I-45] | 50 to 75 | 300 to 1000 | – | –
Cc1cc(OCc2ncccn2)cc(=O)n1[C@H](C)c1ccc(-c2ccc(C3CC3)cc2)cc1 [Compound I-150] | < 25 | – | – | –
Cc1cc(C#CC2CC2)cc(=O)n1[C@H](C)c1ccc(C#CC2CC2)cc1 [Compound I-90] | 50 to 75 | – | – | –
Cc1cc(OCS(=O)(=O)N(C)C)cc(=O)n1[C@H](C)c1ccc(C#CC2CC2)c(F)c1 [Compound I-37, (R)-1-(1-(1-(4-(cyclopropylethynyl)-3-fluorophenyl)ethyl)-6-methyl-2-oxo-1,2-dihydropyridin-4-yloxy)-N,N-dimethylmethanesulfonamide] | 50 to 75 | – | – | –
Cc1cc(OCC(=O)N2CC[C@@H](N(C)S(C)(=O)=O)C2)cc(=O)n1[C@H](C)c1ccc(C#CC2CC2)cc1 [Compound I-338] | > 75 | – | – | –
Cc1cc(OCC2COCCO2)cc(=O)n1[C@H](C)c1ccc(NC(=O)c2cnccn2)c(F)c1 (stereo partly drawn) [Compound I-9, N-(4-((1R)-1-(4-((1,4-dioxan-2-yl)methoxy)-6-methyl-2-oxopyridin-1 (2H)-yl)ethyl)-2-fluorophenyl) pyrazine-2-carboxamide] | < 25 | – | – | –
CCN(CC)C(=O)COc1cc(C)n([C@H](C)c2ccc(C#CC3CC3)cc2)c(=O)c1 [Compound I-268] | – | ≤ 300 | > 75 | –
Cc1cc(OCC(=O)N2CC[C@@H](C(=O)O)C2)cc(=O)n1[C@H](C)c1ccc(C#CC2CC2)cc1 [Compound I-250] | – | ≤ 300 | > 75 | –
Cc1cc(OCC(N(C)C)C(F)(F)F)cc(=O)n1[C@H](C)c1ccc(C#CC2CC2)c(F)c1 (some centres unmarked) [Compound I-85] | 50 to 75 | – | – | –
Cc1cc(OCC(=O)N2CCCC2(C)C)cc(=O)n1[C@H](C)c1ccc(C#CC2CC2)cc1 [Compound I-258] | – | ≤ 300 | > 75 | –
Cc1cc(OCC(=O)N2CCC(=O)C2)cc(=O)n1[C@H](C)c1ccc(C#CC2CC2)cc1 [Compound I-245] | – | ≤ 300 | > 75 | –
Cc1cc(OCC(O)C(C)C)cc(=O)n1[C@H](C)c1ccc(C#CC2CC2)cc1 (some centres unmarked) [Compound I-274] | > 75 | – | – | –
Cc1cc(OCC(=O)N2CC[C@H](NS(C)(=O)=O)C2)cc(=O)n1[C@H](C)c1ccc(C#CC2CC2)cc1 [Compound I-335] | – | – | > 75 | –
Cc1cc(OCC(=O)N(C)C)cc(=O)n1C(C)c1ccncc1 (centres unmarked) [Compound I-227] | < 25 | – | – | –
Cc1cc(OCC(=O)N2CCC(F)(F)CC2)cc(=O)n1[C@H](C)c1ccc(C#CC2CC2)c(F)c1 [Compound I-26] | > 75 | – | – | –
Cc1cc(C#CC2CC2)cc(=O)n1[C@@H](C)c1ccc(C#CC2CC2)cc1 [Compound I-234] | < 25 | – | – | –
COC(COc1cc(C)n([C@H](C)c2ccc(C#CC3CC3)cc2)c(=O)c1)C(C)C (some centres unmarked) [Compound I-275] | > 75 | – | – | –

Structure (SMILES) | inhibition at 10 µM (human GPR84 receptor) [%] | IC50 (human GPR84 receptor) [nM] | inhibition at 2 µM (human GPR84 receptor) [%] | further results
COc1cccc([C@H](C)n2c(C)cc(C#CC3CC3)cc2=O)c1 [Compound I-238] | – | – | < 25 | –
Cc1cc(OCC(=O)N2CCCC2)cc(=O)n1[C@H](C)c1ccc(C#CC2CC2)cc1 [Compound I-2] | – | ≤ 300 | > 75 | –
Cc1cc(OCc2nnn(C)n2)cc(=O)n1[C@H](C)c1ccc(C#CC2CC2)cc1 [Compound I-261] | – | 300 to 1000 | > 75 | –
Cc1cc(OCC(=O)N2CC3(CCN(C)CC3)C2)cc(=O)n1[C@H](C)c1ccc(C#CC2CC2)cc1 [Compound I-79] | > 75 | – | – | –
Cc1cc(OCC(=O)N2CC3(COC3)C2)cc(=O)n1[C@H](C)c1ccc(C#CC2CC2)cc1 [Compound I-283] | > 75 | ≤ 300 | – | –
Cc1cc(OCC(=O)N(C)C)cc(=O)n1C(C)c1ccnc(O)c1 (centres unmarked) [Compound I-231] | < 25 | – | – | –
CC#CC#Cc1ccc([C@@H](C)n2c(C)cc(OCc3ncccn3)cc2=O)cc1 [Compound I-74] | 25 to 50 | – | – | –
Cc1cc(OCc2ncc(NS(C)(=O)=O)cn2)cc(=O)n1[C@H](C)c1ccc(C#CC2CC2)cc1 [Compound I-11] | – | ≤ 300 | > 75 | –
[2H]C1(C#Cc2ccc([C@@H](C)n3c(C)cc(OCC(=O)N(C)C)cc3=O)cc2)CC1 [Compound I-73] | – | ≤ 300 | > 75 | –
Cc1cc(OCC(=O)N(C)C2CNC2)cc(=O)n1[C@H](C)c1ccc(C#CC2CC2)cc1 [Compound I-78] | > 75 | – | – | –
Cc1cc(OCC(=O)N2CC(C)(CO)C2)cc(=O)n1[C@H](C)c1ccc(C#CC2CC2)cc1 [Compound I-313] | – | ≤ 300 | > 75 | –
Cc1cc(OCCN(C)C)cc(=O)n1[C@H](C)c1ccc(C#CC2CC2)cc1 [Compound I-280] | 50 to 75 | – | – | –
Cc1cc(OCC(=O)N2CC[C@@H]2C(=O)O)cc(=O)n1[C@H](C)c1ccc(C#CC2CC2)cc1 [Compound I-300] | > 75 | 1000 to 3000 | – | –
Cc1cc(OCC(=O)N(C)C)cc(=O)n1[C@H](C)c1ccc(C#CC2CC2(F)F)c(F)c1 (stereo partly drawn) [Compound I-64, 2-((1-((1R)-1-(4-((2,2-difluorocyclopropyl)ethynyl)-3-fluorophenyl)ethyl)-6-methyl-2-oxo-1,2-dihydropyridin-4-yl)oxy)-N,N-dimethylacetamide] | > 75 | ≤ 300 | – | –
Cc1cc(OCC(=O)N(C)C)cc(=O)n1[C@H](C)c1ccc(C#CC2CC2)c(F)c1 [Compound I-14] | – | ≤ 300 | > 75 | –
CNS(=O)(=O)C1CN(C(=O)COc2cc(C)n([C@H](C)c3ccc(C#CC4CC4)cc3)c(=O)c2)C1 [Compound I-323] | – | ≤ 300 | > 75 | –
Cc1cc(OCC(=O)N(C)C)cc(=O)n1[C@H](C)c1ccc(C#CC2CC2(F)F)c(F)c1 (single isomer, unassigned) [Compound I-84] | – | ≤ 300 | – | –
CNS(=O)(=O)[C@@H]1CCN(C(=O)COc2cc(C)n([C@H](C)c3ccc(C#CC4CC4)cc3)c(=O)c2)C1 [Compound I-321] | – | ≤ 300 | > 75 | –
Cc1cc(OCC(=O)N2CC(C)(O)C2)cc(=O)n1[C@H](C)c1ccc(C#CC2CC2)cc1 [Compound I-345] | > 75 | ≤ 300 | – | –
